Key:
[1] = tested on: MPTP-induced mice PD model; test: Footprint test in MPTP-induced mice PD model; format: in vivo; details: selegiline 10 mg/kg orally twice daily 14 days; not statistically significant
[2] = tested on: striatal DA; test: HPLC-ECD striatal DA in MPTP mice; format: in vivo; details: MPTP-treated mice, selegiline 10 mg/kg

C#CCN(C)[C@H](C)Cc1ccccc1 [selegiline]
Locomotion impairments in footprint test (time to cross corridor, stride length) [1]: attenuated these locomotion impairments | Increase in dopamine levels [2]: 15.35%

Reference: article PMC11464467 (Journal of Advanced Research, 2023)
